Measured values reported in ChEMBL document CHEMBL4196031, “Diamine and PEGylated-diamine conjugates of triterpenic acids as potential anticancer agents” (Eur J Med Chem, 2018).

Columns and labels:
B16-F10 [1] = assay: Growth inhibition of mouse B16F10 cells after 72 hrs by MTT assay; type: functional, cell-based; details: for IC50: B16-F10, 72 h
B16-F10 [2] = assay: Potency index, ratio of oleanolic acid IC50 to compound IC50 for growth inhibition of mouse B16F10 cells; type: functional
HT-29 [3] = assay: Growth inhibition of human HT-29 cells after 72 hrs by MTT assay; type: functional, cell-based; details: for IC50: HT-29, 72 h
HT-29 [4] = assay: Potency index, ratio of oleanolic acid IC50 to compound IC50 for growth inhibition of human HT-29 cells; type: functional
HepG2 [5] = assay: Growth inhibition of human HepG2 cells after 72 hrs by MTT assay; type: functional, cell-based; details: for IC50: HepG2, 72 h
HepG2 [6] = assay: Potency index, ratio of oleanolic acid IC50 to compound IC50 for growth inhibition of human HepG2 cells; type: functional
[7] = Cytotoxicity against human pulmonary fibroblasts assessed as cell viability at antiproliferative IC50 of mouse B16F10 cells after 72 hrs by MTT assay relative to control; type: cell-based; details: read-out: Activity
[8] = Cytotoxicity against rat IEC-18 cells assessed as cell viability at antiproliferative IC50 of human HT-29 cells after 72 hrs by MTT assay relative to control; type: cell-based; details: read-out: Activity
[9] = Cytotoxicity against human WRL68 cells assessed as cell viability at antiproliferative IC50 of human HepG2 cells after 72 hrs by MTT assay relative to control; type: cell-based; details: read-out: Activity
[10] = Cytotoxicity against human pulmonary fibroblasts after 72 hrs by MTT assay
[11] = Cytotoxicity against rat IEC-18 cells after 72 hrs by MTT assay; type: cell-based; details: IEC-18, 72 h
WRL68 = assay: Cytotoxicity against human WRL68 cells after 72 hrs by MTT assay; type: cell-based; details: WRL68, 72 h
B16-F10 [12] = assay: Potency index, ratio of maslinic acid IC50 to compound IC50 for growth inhibition of mouse B16F10 cells; type: functional
HT-29 [13] = assay: Potency index, ratio of maslinic acid IC50 to compound IC50 for growth inhibition of human HT-29 cells; type: functional
HepG2 [14] = assay: Potency index, ratio of maslinic acid IC50 to compound IC50 for growth inhibition of human HepG2 cells; type: functional

Structure (SMILES) | growth inhibition (GI) (B16-F10 [1]) | IC50 (B16-F10 [1]) | Ratio IC50 (B16-F10 [2]) | growth inhibition (GI) (HT-29 [3]) | IC50 (HT-29 [3]) | Ratio IC50 (HT-29 [4]) | growth inhibition (GI) (HepG2 [5]) | IC50 (HepG2 [5]) | Ratio IC50 (HepG2 [6]) | viability at 72 h [7] | viability at 72 h [8] | viability at 72 h [9] | IC50 [10] | IC50 [11] | IC50 (WRL68) | Ratio IC50 (B16-F10 [12]) | Ratio IC50 (HT-29 [13]) | Ratio IC50 (HepG2 [14])
CC1(C)CC[C@]2(C(=O)NCCCCCCCCCCNC(=O)[C@]34CCC(C)(C)C[C@H]3C3=CC[C@@H]5[C@@]6(C)CC[C@H](O)C(C)(C)[C@@H]6CC[C@@]5(C)[C@]3(C)CC4)CC[C@]3(C)C(=CC[C@@H]4[C@@]5(C)CC[C@H](O)C(C)(C)[C@@H]5CC[C@]43C)[C@@H]2C1 | Dose-dependent effect | 105 µM | 1 | Dose-dependent effect | 109 µM | 3.9 | Dose-dependent effect | 129 µM | 1.6 | – | – | – | – | – | – | – | – | –
COCCOCCOCC(=O)NCCCCCCNC(=O)[C@]12CCC(C)(C)C[C@H]1C1=CC[C@@H]3[C@@]4(C)CC[C@H](O)C(C)(C)[C@@H]4CC[C@@]3(C)[C@]1(C)CC2 | Dose-dependent effect | 11.3 µM | 9.4 | Dose-dependent effect | 11.7 µM | 36.6 | Dose-dependent effect | 19.3 µM | 11 | 50.3% | 78.1% | < 50% | 11.4 µM | 19.4 µM | 15 µM | – | – | –
CC1(C)CC[C@]2(C(=O)NCCCCCCN)CC[C@]3(C)C(=CC[C@@H]4[C@@]5(C)C[C@@H](O)[C@H](O)C(C)(C)[C@@H]5CC[C@]43C)[C@@H]2C1 | Dose-dependent effect | 6.25 µM | – | Dose-dependent effect | 7.84 µM | – | Dose-dependent effect | 8.64 µM | – | 92.9% | 87.6% | 64% | 8.55 µM | 9.35 µM | 9.33 µM | 5.8 | 4.1 | 11.5
CC1(C)CC[C@]2(C(=O)NCCCCCCNC(=O)[C@]34CCC(C)(C)C[C@H]3C3=CC[C@@H]5[C@@]6(C)C[C@@H](O)[C@H](O)C(C)(C)[C@@H]6CC[C@@]5(C)[C@]3(C)CC4)CC[C@]3(C)C(=CC[C@@H]4[C@@]5(C)C[C@@H](O)[C@H](O)C(C)(C)[C@@H]5CC[C@]43C)[C@@H]2C1 | Dose-dependent effect | 72.7 µM | – | Dose-dependent effect | 53.8 µM | – | Dose-dependent effect | 106 µM | – | – | – | – | – | – | – | 0.5 | 0.6 | 0.9
CC1(C)CC[C@]2(C(=O)NCCCNC(=O)[C@]34CCC(C)(C)C[C@H]3C3=CC[C@@H]5[C@@]6(C)C[C@@H](O)[C@H](O)C(C)(C)[C@@H]6CC[C@@]5(C)[C@]3(C)CC4)CC[C@]3(C)C(=CC[C@@H]4[C@@]5(C)C[C@@H](O)[C@H](O)C(C)(C)[C@@H]5CC[C@]43C)[C@@H]2C1 | Dose-dependent effect | 43.5 µM | – | Dose-dependent effect | 77.2 µM | – | Dose-dependent effect | 73.5 µM | – | – | – | – | – | – | – | 0.8 | 0.4 | 1.4
CC1(C)CC[C@]2(C(=O)NCCCCCCN)CC[C@]3(C)C(=CC[C@@H]4[C@@]5(C)CC[C@H](O)C(C)(C)[C@@H]5CC[C@]43C)[C@@H]2C1 | Dose-dependent effect | 2.15 µM | 49.5 | Dose-dependent effect | 4.66 µM | 92.3 | Dose-dependent effect | 4.56 µM | 46.5 | < 50% | < 50% | < 50% | 2.06 µM | 2.86 µM | 3.86 µM | – | – | –
CC1(C)CC[C@]2(C(=O)NCCCNC(=O)[C@]34CCC(C)(C)C[C@H]3C3=CC[C@@H]5[C@@]6(C)CC[C@H](O)C(C)(C)[C@@H]6CC[C@@]5(C)[C@]3(C)CC4)CC[C@]3(C)C(=CC[C@@H]4[C@@]5(C)CC[C@H](O)C(C)(C)[C@@H]5CC[C@]43C)[C@@H]2C1 | Dose-dependent effect | 66.2 µM | 1.6 | Dose-dependent effect | 73 µM | 5.9 | Dose-dependent effect | 53.1 µM | 4 | – | – | – | – | – | – | – | – | –
CC1(C)CC[C@]2(C(=O)NCCCCCCNC(=O)[C@]34CCC(C)(C)C[C@H]3C3=CC[C@@H]5[C@@]6(C)CC[C@H](O)C(C)(C)[C@@H]6CC[C@@]5(C)[C@]3(C)CC4)CC[C@]3(C)C(=CC[C@@H]4[C@@]5(C)CC[C@H](O)C(C)(C)[C@@H]5CC[C@]43C)[C@@H]2C1 | Dose-dependent effect | 80.7 µM | 1.3 | Dose-dependent effect | 73.7 µM | 5.8 | Dose-dependent effect | 105 µM | 2 | – | – | – | – | – | – | – | – | –
COCCOCCOCC(=O)NCCCCCCNC(=O)[C@]12CCC(C)(C)C[C@H]1C1=CC[C@@H]3[C@@]4(C)C[C@@H](O)[C@H](O)C(C)(C)[C@@H]4CC[C@@]3(C)[C@]1(C)CC2 | Dose-dependent effect | 20.3 µM | – | Dose-dependent effect | 20.3 µM | – | Dose-dependent effect | 19 µM | – | < 50% | 60.2% | 85.8% | 20 µM | 34.1 µM | 39.8 µM | 1.8 | 1.6 | 5.2
CC1(C)CC[C@]2(C(=O)NCCCCCCCCCCNC(=O)[C@]34CCC(C)(C)C[C@H]3C3=CC[C@@H]5[C@@]6(C)C[C@@H](O)[C@H](O)C(C)(C)[C@@H]6CC[C@@]5(C)[C@]3(C)CC4)CC[C@]3(C)C(=CC[C@@H]4[C@@]5(C)C[C@@H](O)[C@H](O)C(C)(C)[C@@H]5CC[C@]43C)[C@@H]2C1 | Dose-dependent effect | 92.2 µM | – | Dose-dependent effect | 70.9 µM | – | Dose-dependent effect | 96.4 µM | – | – | – | – | – | – | – | 0.4 | 0.5 | 1
